Laboratory results taken from PMC4287843 (ACS Chemical Biology, 2014).
Strand notation (5' to 3'): a small letter for the sugar, then the base; units joined by * are phosphorothioate-linked, units joined directly phosphodiester-linked; [ ] holds rarer units or linkages, { } end groups; capitals alone tell only the bases. m = 2'-O-methyl

What was measured:
[1] = tested on: SMN2 mini-gene splicing in COS7 cells expressing r(CGG)60X; experiment: SMN2 alternative pre-mRNA splicing in FXTAS cell culture model; format: cell-based
r(CGG)12-DGCR8Δ complex = settings: read-out: IC50 for disrupting binding of DGCR8Δ; in vitro; cited from earlier work
r(CGG) repeats = settings: cited from earlier work
DGCR8Δ [2] = molecular target: T1, DGCR8Δ (UniProt Q8WYQ5 493-720); experiment: EMSA
T1 sequence: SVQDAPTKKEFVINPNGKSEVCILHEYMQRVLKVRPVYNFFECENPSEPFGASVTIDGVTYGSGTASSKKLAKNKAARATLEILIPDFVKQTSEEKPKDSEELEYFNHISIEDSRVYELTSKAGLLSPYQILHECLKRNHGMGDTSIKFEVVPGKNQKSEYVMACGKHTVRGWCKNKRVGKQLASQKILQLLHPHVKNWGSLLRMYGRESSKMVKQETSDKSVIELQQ

DGCR8Δ [3] = molecular target: T1, DGCR8Δ; experiment: TR-FRET

2’OMe-PS-(CUGCGCGUAUUAGUCUACAAGUAAGGGCU-ACGACCU) (mC*mU*mG*mC*mG*mC*mG*mU*mA*mU*mU*mA*mG*mU*mC*mU*mA*mC*mA*mA*mG*mU*mA*mA*mG*mG*mG*mC*mU*mA*mC*mG*mA*mC*mC*mU) [scrambled oligonucleotide]
effect on SMN2 splicing defect ([1]; 100 and 500 nM oligo (not 4 or 20 nM)): exacerbates splicing defects

Cc1c2cc[n+](CCN3CCCCC3)cc2c(C)c2c1[nH]c1ccc(O)cc12 [1a, 9-hydroxy-5,11-dimethyl-2-(2-(piperidin-1-yl)ethyl)-6H-pyrido[4,3-b]carbazol-2-ium]
fold less potent than 2H-5 for improving pre-mRNA splicing defects [1]: ~10 fold | IC50 (r(CGG)12-DGCR8Δ complex): 13 ± 0.4 µM | Kd (r(CGG) repeats): 0.076 ± 0.004 µM

B1: d(CCG)8 (ssDNA)
DNA: CCGCCGCCGCCGCCGCCGCCGCCG
binding result (DGCR8Δ [2]): no binding

B2: r(CGG)12 (structured_RNA)
RNA: CGGCGGCGGCGGCGGCGGCGGCGGCGGCGGCGGCGG
binding result (DGCR8Δ [3]): binds

B3: d(CCG)12 (ssDNA)
DNA: CCGCCGCCGCCGCCGCCGCCGCCGCCGCCGCCGCCG
binding result (DGCR8Δ [2]): no binding
